In ChEMBL document CHEMBL5465560, “Selectivity Literature for EUbOPEN Chemogenomic Library” (2024):
Values belong to the compound of their own block, whether it stands above or below them.

Legend:
[1] = molecular target: Tyrosine-protein kinase Blk (Homo sapiens) (UniProt P51451); conditions: at 10 µM
[2] = molecular target: Cyclin-dependent kinase 4 (Homo sapiens, UniProt P11802); assay: Selectivity interaction (KinomeScan (DiscoverX)) EUB0001049a CDK4; conditions: at 1 µM
[3] = molecular target: Tyrosine-protein kinase SYK (Homo sapiens, UniProt P43405); assay: Selectivity interaction (Ambit KINOMEscan and KiNATiv profiling in Jurkat cells) EUB0000090b SYK; type: cell-based; conditions: at 1 µM
[4] = molecular target: Calcium/calmodulin-dependent protein kinase type 1D (Homo sapiens) (UniProt Q8IU85); assay: Selectivity interaction (ActivX KiNativ screen (kinase selectivity in THP-1 cell lysates)) EUB0000639a CAMK1D; type: subcellular; conditions: lysate, at 5 µM
Chain of Calcium/calmodulin-dependent protein kinase type 1D (Homo sapiens) (Q8IU85 whole entry, looked up): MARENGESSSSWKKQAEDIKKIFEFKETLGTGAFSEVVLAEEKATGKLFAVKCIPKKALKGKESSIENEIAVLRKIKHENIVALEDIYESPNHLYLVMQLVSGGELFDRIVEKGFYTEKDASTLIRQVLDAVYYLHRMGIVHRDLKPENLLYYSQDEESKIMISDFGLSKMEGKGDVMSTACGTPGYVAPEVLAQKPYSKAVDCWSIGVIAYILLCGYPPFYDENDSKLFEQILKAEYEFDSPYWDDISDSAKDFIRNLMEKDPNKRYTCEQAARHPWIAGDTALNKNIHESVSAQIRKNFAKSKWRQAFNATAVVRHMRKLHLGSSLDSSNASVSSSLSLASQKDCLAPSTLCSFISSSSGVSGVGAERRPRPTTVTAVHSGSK

[5] = molecular target: MAP kinase-activated protein kinase 2 (Homo sapiens, UniProt P49137)
Chain of MAP kinase-activated protein kinase 2 (P49137 whole entry): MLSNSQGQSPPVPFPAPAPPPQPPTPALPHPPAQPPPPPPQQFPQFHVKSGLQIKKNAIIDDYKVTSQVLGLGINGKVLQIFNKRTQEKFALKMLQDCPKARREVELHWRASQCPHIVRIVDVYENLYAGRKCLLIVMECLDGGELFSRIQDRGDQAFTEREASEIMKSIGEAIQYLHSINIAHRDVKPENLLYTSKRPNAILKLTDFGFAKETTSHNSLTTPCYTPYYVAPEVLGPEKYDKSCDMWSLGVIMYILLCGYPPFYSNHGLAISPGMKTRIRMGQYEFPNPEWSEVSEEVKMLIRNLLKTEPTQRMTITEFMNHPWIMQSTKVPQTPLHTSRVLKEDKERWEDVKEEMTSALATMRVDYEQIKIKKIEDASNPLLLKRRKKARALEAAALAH

[6] = molecular target: Serine/threonine-protein kinase VRK2 (Homo sapiens) (UniProt Q86Y07); assay: Selectivity interaction (KinomeScan (DiscoverX)) EUB0000595a VRK2; conditions: at 10 µM
Chain of Serine/threonine-protein kinase VRK2 (Homo sapiens) (Q86Y07 whole entry): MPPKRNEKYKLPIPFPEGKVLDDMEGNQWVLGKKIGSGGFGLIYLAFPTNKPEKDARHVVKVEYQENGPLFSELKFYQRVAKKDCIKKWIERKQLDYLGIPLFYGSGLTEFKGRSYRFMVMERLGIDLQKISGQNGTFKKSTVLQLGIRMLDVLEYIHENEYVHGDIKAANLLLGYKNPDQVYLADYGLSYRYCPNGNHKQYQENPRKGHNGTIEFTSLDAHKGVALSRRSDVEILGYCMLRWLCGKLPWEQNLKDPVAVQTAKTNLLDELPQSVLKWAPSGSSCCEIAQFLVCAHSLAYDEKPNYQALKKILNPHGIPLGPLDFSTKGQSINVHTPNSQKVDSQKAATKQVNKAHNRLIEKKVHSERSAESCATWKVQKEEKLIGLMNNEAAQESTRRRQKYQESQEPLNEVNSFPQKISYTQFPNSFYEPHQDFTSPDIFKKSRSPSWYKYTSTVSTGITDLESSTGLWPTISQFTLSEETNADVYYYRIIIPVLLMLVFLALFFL

[7] = molecular target: 5-hydroxytryptamine receptor 6 (Homo sapiens) (UniProt P50406); assay: Selectivity interaction (GPCR panel (PDSP screen)) EUB0001079a HTR6; conditions: at 10 µM
Chain of 5-hydroxytryptamine receptor 6 (Homo sapiens) (P50406 whole entry): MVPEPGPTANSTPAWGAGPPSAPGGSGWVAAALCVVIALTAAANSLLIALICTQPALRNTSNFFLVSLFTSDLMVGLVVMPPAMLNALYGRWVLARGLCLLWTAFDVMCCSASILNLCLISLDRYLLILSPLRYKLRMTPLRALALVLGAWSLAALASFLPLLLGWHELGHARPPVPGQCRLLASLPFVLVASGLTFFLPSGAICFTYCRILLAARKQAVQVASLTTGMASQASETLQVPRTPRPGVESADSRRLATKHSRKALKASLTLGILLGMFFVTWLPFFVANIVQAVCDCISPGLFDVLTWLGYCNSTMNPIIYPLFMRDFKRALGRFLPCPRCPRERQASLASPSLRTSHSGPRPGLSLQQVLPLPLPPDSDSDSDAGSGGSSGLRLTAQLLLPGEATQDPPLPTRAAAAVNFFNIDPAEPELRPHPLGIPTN

[8] = molecular target: Serine/threonine-protein kinase 32C (Homo sapiens) (UniProt Q86UX6); assay: Selectivity interaction (KinomeScan (DiscoverX)) EUB0001079a STK32C; conditions: at 1 µM
Chain of Serine/threonine-protein kinase 32C (Homo sapiens) (Q86UX6 whole entry): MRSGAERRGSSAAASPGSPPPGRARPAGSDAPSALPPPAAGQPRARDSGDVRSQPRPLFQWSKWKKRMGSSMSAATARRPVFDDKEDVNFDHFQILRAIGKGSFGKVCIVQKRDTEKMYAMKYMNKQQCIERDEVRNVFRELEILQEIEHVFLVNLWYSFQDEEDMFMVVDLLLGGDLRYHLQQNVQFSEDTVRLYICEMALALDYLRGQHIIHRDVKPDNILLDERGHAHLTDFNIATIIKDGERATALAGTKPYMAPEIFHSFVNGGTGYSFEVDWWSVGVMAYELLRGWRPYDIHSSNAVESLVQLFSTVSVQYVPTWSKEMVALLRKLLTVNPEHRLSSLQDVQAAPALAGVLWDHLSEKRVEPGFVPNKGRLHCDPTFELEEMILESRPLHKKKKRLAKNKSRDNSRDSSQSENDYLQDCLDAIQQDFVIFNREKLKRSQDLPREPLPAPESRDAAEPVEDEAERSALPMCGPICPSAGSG

[9] = molecular target: T1, Ephrin type-B receptor 2 (Homo sapiens) (UniProt P29323); assay: Selectivity interaction (ProQinase) EUB0000171b EPHB2
T1 sequence (whole entry): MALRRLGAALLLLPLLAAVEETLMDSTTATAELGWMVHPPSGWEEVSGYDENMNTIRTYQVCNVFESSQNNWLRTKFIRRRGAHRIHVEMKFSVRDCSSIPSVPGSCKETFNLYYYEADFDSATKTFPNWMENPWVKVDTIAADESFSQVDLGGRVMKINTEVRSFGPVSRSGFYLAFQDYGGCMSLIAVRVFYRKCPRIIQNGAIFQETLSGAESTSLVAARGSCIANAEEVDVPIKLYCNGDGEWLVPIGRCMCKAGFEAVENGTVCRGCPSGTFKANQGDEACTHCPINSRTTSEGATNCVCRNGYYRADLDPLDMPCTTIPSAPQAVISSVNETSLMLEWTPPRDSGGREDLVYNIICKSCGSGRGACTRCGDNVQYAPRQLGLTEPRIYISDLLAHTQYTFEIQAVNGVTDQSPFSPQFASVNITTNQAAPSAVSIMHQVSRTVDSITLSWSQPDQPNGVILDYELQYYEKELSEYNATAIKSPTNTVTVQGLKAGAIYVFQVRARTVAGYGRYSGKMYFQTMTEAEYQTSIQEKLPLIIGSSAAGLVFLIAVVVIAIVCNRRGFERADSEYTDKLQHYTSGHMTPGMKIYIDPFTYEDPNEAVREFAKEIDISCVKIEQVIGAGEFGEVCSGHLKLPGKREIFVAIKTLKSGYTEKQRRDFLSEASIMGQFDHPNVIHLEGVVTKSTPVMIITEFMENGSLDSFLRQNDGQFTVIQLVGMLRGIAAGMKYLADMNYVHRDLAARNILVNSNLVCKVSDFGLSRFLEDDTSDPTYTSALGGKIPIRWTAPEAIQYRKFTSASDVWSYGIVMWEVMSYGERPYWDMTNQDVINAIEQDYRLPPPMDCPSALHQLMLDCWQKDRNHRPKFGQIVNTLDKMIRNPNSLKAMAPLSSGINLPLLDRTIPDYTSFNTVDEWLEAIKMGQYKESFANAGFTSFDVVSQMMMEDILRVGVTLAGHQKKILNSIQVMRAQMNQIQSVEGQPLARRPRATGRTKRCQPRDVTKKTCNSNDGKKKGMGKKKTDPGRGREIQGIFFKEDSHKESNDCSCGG

[10] = molecular target: Serine/threonine-protein kinase Nek7 (Homo sapiens) (UniProt Q8TDX7); assay: Selectivity interaction (KinomeScan (DiscoverX)) EUB0001619a NEK7; conditions: at 1 µM
Chain of Serine/threonine-protein kinase Nek7 (Homo sapiens) (Q8TDX7 whole entry, looked up): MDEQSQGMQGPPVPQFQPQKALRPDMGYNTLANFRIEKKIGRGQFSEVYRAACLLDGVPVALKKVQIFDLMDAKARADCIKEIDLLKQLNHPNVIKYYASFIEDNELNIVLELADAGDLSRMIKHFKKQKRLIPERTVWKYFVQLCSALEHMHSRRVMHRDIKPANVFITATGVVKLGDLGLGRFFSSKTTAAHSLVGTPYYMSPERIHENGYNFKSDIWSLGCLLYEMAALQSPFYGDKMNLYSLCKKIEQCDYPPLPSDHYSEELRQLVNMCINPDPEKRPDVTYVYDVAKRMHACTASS

[11] = molecular target: T2, Serine/threonine-protein kinase D1 (Homo sapiens) (UniProt Q15139); assay: Selectivity interaction (KinomeScan (DiscoverX)) EUB0001619a PRKD1; conditions: at 1 µM
T2 sequence (whole entry): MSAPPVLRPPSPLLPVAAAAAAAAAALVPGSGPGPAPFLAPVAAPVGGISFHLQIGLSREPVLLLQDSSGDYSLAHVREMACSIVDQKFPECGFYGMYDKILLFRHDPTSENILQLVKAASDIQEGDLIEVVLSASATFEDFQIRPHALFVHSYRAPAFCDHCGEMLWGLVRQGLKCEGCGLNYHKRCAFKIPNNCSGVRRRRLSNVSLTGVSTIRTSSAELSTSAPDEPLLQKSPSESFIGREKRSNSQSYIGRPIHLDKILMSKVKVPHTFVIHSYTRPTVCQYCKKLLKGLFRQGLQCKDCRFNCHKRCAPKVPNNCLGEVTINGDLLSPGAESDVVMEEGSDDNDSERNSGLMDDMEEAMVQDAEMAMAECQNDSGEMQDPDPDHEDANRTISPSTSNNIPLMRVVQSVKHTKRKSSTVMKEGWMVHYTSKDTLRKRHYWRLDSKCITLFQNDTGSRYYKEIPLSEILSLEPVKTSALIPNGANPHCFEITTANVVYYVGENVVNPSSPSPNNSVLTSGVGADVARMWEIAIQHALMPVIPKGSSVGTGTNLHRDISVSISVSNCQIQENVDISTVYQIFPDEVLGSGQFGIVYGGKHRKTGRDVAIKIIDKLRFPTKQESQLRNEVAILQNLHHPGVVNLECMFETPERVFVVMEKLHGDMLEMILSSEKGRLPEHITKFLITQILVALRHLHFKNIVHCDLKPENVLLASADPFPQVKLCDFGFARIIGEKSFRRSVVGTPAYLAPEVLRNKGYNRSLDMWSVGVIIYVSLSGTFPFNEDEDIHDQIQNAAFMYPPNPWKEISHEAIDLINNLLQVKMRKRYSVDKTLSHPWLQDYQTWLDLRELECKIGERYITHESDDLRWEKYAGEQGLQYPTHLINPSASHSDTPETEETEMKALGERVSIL

[12] = molecular target: Ribosomal protein S6 kinase alpha-5 (Homo sapiens) (UniProt O75582); assay: Selectivity interaction (KinomeScan (DiscoverX)) EUB0001619a RPS6KA5; conditions: at 1 µM
[13] = molecular target: Tyrosine-protein kinase HCK (Homo sapiens) (UniProt P08631); assay: Selectivity interaction (KinomeScan (DiscoverX)) EUB0000618a HCK; conditions: at 10 µM
Chain of Tyrosine-protein kinase HCK (Homo sapiens) (P08631 2-526 limits assumed): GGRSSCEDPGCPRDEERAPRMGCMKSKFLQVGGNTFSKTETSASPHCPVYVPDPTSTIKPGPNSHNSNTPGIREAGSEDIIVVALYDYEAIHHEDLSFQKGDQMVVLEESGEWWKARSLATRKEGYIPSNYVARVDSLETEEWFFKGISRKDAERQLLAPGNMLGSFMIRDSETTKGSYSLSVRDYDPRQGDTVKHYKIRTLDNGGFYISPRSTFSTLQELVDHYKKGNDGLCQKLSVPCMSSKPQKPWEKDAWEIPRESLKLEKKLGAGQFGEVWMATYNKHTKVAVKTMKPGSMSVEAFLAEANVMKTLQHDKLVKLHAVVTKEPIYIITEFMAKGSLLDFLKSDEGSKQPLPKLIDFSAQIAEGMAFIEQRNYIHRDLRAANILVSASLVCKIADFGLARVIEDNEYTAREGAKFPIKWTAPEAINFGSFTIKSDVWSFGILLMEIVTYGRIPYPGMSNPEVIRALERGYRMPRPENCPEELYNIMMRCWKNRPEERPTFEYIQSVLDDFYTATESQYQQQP

[14] = molecular target: Tyrosine-protein kinase Lck (Homo sapiens, UniProt P06239); assay: Selectivity interaction (KinomeScan (DiscoverX)) EUB0000618a LCK; conditions: at 10 µM
Chain of Tyrosine-protein kinase Lck (P06239 2-509 limits assumed): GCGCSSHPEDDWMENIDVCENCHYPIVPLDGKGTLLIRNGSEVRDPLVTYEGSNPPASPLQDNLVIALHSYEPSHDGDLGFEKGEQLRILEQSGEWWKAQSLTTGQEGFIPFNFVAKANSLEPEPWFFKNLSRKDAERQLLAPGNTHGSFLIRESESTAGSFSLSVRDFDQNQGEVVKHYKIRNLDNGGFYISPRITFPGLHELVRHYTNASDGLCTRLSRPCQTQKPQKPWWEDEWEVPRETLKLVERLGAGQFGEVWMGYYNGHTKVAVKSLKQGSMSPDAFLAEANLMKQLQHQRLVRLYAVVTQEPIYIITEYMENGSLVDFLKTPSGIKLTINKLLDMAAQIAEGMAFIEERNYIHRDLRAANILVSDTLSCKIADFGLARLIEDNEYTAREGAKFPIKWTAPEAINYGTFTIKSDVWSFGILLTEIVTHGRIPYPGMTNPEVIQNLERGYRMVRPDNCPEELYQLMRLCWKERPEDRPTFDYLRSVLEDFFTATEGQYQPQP

Chain of Tyrosine-protein kinase Blk (Homo sapiens) (P51451 2-505 limits assumed): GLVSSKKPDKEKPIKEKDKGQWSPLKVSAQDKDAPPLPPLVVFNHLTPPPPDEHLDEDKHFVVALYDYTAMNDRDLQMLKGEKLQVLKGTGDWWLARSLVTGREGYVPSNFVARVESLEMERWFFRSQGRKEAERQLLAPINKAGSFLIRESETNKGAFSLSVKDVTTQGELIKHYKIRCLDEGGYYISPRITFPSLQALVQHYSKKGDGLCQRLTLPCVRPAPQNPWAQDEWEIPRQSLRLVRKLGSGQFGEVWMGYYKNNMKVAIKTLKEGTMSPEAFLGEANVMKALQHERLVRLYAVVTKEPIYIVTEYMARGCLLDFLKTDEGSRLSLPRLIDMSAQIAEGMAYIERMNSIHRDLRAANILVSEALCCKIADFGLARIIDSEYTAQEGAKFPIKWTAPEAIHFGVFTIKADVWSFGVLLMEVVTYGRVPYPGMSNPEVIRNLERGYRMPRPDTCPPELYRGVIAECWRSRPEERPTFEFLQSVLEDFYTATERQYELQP
Chain of Cyclin-dependent kinase 4 (P11802 whole entry): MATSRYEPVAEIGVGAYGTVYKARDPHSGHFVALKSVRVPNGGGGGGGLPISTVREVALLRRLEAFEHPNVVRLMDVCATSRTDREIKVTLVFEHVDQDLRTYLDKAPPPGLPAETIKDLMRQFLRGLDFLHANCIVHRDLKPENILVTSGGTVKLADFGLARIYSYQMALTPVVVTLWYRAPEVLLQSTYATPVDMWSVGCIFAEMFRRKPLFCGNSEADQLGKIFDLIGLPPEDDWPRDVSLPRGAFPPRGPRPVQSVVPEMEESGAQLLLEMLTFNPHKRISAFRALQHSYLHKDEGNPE

Structure (SMILES): Cc1cc([C@@H](C)Nc2ccccc2C(=O)O)c2nc(N3CCOCC3)cc(=O)n2c1 [AZD-6482]
% of control [1]: 99%

Structure (SMILES): COc1cc(Nc2nc(C)cc(-c3cnn4nc(OC)ccc34)n2)cc(C(F)(F)F)c1
% of control [2]: 70%

Structure (SMILES): CN(C)C/C=C/C(=O)Nc1ccc(C(=O)N2CCCC(Nc3ncc(Cl)c(-c4c[nH]c5ccccc45)n3)C2)cc1 (stereo not given)
% of control [3]: 86%

% of inhibition [4]: 16.3%
Structure (SMILES): CC[C@@H]1[C@H](F)C(=O)N[C@@H]1COc1nccc2cc(C(N)=O)c(OC)cc12 [ZIMLOVISERTIB]

IC50 [5]: > 10 µM
Structure (SMILES): CCc1cccc(CC)c1NC(=O)c1nn(C)c2c1CCc1cnc(Nc3ccc(C(=O)NC4CCN(C)CC4)cc3OC(F)(F)F)nc1-2

Structure (SMILES): COCC(=O)NC/C=C/c1ccc2ncnc(Nc3ccc(Oc4ccc(C)nc4)c(C)c3)c2c1 [CP-724714]
% of control [6]: 100%

Structure (SMILES): Nc1cnc(N2CCc3cc(S(=O)(=O)Nc4c(F)cc(Cl)cc4F)cc(N4CCCC4=O)c32)nc1 [TP-020n]
% of inhibition [7]: -26.7%
% of control [8]: 100%

% of control ([9]; at 1 µM): 93%
% of control ([9]; at 5 µM): 78%
Structure (SMILES): C=CC(=O)Nc1cccc(C(=O)Nc2ccc(Nc3cc(-c4[nH]c(SC)nc4C)ccn3)cc2)c1

Structure (SMILES): N#Cc1cccc(-c2c[nH]c3ncnc(N4CCOCC4)c23)c1
% of control [10]: 100%
% of control [11]: 100%
% of control [12]: 74%

Structure (SMILES): O[C@H]1CC[C@H](Nc2ncc3nc(Nc4c(F)cc(F)cc4F)n([C@H]4CCOC4)c3n2)CC1
% of control [13]: 100%
% of control [14]: 57%
